# Reference: ChEMBL document CHEMBL4382286, “Nongenotoxic 3-Nitroimidazo[1,2-a]pyridines Are NTR1 Substrates That Display Potent in Vitro Antileishmanial Activity” (ACS Med Chem Lett, 2019)
# What was measured:
# [1] = test system: Leishmania donovani; assay: Antileishmanial activity against promastigote stage of Leishmania donovani MHOM/IN/00/DEVI after 72 hrs by MTT assay; type: functional, organism-based
# [2] = Cytotoxicity against human HepG2 cells after 72 hrs by MTT assay; type: cell-based
# [3] = Solubility of the compound in RPMI medium at 4 to 6 uM; type: physicochemical
# [4] = Selectivity index, ratio of CC50 for human HepG2 cells to IC50 for promastigote stage of Leishmania donovani MHOM/IN/00/DEVI; type: toxicity; conditions: read-out: Ratio CC50/IC50
# [5] = test system: Leishmania donovani; assay: Antileishmanial activity against intracellular amastigote stage of Leishmania donovani infected in human THP1 cells after 120 hrs by giemsa staining based microscopic analysis; type: functional, organism-based; conditions: THP-1, 120 h
# [6] = test system: Leishmania infantum; assay: Antileishmanial activity against Leishmania infantum axenic amastigotes after 48 hrs by steady-glo luciferase reporter gene assay; type: functional, organism-based
# [7] = test system: Leishmania major; assay: Antileishmanial activity against promastigote stage of Leishmania major MHOM/IL/81/Friedlin after 72 hrs by MTT assay; type: functional, organism-based
# [8] = test system: Leishmania major; assay: Antileishmanial activity against intracellular amastigote stage of Leishmania major infected in human THP1 cells after 120 hrs by giemsa staining based microscopic analysis; type: functional, organism-based; conditions: THP-1, 120 h
# [9] = test system: Leishmania donovani; assay: Potency index, ratio of miltefosine IC50 to test compound IC50 for intracellular amastigote stage of Leishmania donovani infected in human THP1 cells; type: functional
# [10] = test system: Leishmania infantum; assay: Potency index, ratio of fexinidazole IC50 to test compound IC50 for Leishmania infantum axenic amastigotes; type: functional
# [11] = test system: Trichomonas vaginalis; assay: Antiprotozoal activity against Trichomonas vaginalis TVR87 measured after 48 hrs by trypan blue assay; type: functional, organism-based
# [12] = test system: Plasmodium falciparum; assay: Antiplasmodial activity against chloroquine/proguanil/pyrimethamine-resistant synchronized stage of Plasmodium falciparum K1 after 72 hrs by SYBR green1 staining based spectrophotometric method; type: functional, organism-based; conditions: K1, 72 h
# [13] = test system: Trypanosoma brucei brucei; assay: Antitrypanosomal activity against trypomastigote stage of Trypanosoma brucei brucei AnTat 1.9 assessed as decrease in parasite viability after 69 hrs by Alamar Blue assay; type: functional, organism-based; conditions: AnTat 1.9, 69 h
# [14] = test system: Trypanosoma cruzi; assay: Antitrypanosomal activity against Trypanosoma cruzi MHOM/BR/78/Silvio cloneX10/7A epimastigotes measured after 4 days by resazurin dye based fluorescence assay; type: functional, organism-based; conditions: 96 h
# [15] = Cytotoxicity against human THP1 cells after 72 hrs by MTT assay; type: cell-based; conditions: THP-1 cells
# [16] = Solubility of the compound in RPMI medium at >62.5 uM; type: physicochemical
# [17] = Half life in CD-1 mouse hepatic microsomes in presence of NADPH by LC-MS/MS analysis; type: ADME, Microsome; conditions: liver microsomes
# [18] = Drug metabolism in CD-1 mouse hepatic microsomes assessed as 6-chloro-8-(4-chlorophenylsulfinyl)-3-nitro-2-(phenylsulfonylmethyl)imidazo[1,2-a]pyridine formation in presence of NADPH by LC-MS/MS analysis; type: ADME, Liver, Microsome
# [19] = Mutagenicity in Salmonella typhimurium TA97a at 62.5 to 625 uM preincubated for 1 hr followed by addition of molten top agar and measured 48 hrs post dark incubation by Ames test; type: toxicity; conditions: salmonella enterica subsp. enterica serovar typhimurium
# [20] = Mutagenicity in Salmonella typhimurium TA98 at 62.5 to 625 uM preincubated for 1 hr followed by addition of molten top agar and measured 48 hrs post dark incubation by Ames test; type: toxicity; conditions: salmonella enterica subsp. enterica serovar typhimurium
# [21] = Mutagenicity in Salmonella typhimurium TA100 at 62.5 to 625 uM preincubated for 1 hr followed by addition of molten top agar and measured 48 hrs post dark incubation by Ames test; type: toxicity; conditions: salmonella enterica subsp. enterica serovar typhimurium
# [22] = Mutagenicity in Salmonella typhimurium TA102 at 62.5 to 625 uM preincubated for 1 hr followed by addition of molten top agar and measured 48 hrs post dark incubation by Ames test; type: toxicity; conditions: salmonella enterica subsp. enterica serovar typhimurium
# [23] = Mutagenicity in Salmonella typhimurium TA97a at 62.5 to 625 uM preincubated for 1 hr with S9 mix followed by addition of molten top agar and measured 48 hrs post dark incubation by Ames test; type: toxicity, subcellular; conditions: salmonella enterica subsp. enterica serovar typhimurium, s9, 48 h
# [24] = Mutagenicity in Salmonella typhimurium TA98 at 62.5 to 625 uM preincubated for 1 hr with S9 mix followed by addition of molten top agar and measured 48 hrs post dark incubation by Ames test; type: toxicity, subcellular; conditions: salmonella enterica subsp. enterica serovar typhimurium, s9, 48 h
# [25] = Mutagenicity in Salmonella typhimurium TA100 at 62.5 to 625 uM preincubated for 1 hr with S9 mix followed by addition of molten top agar and measured 48 hrs post dark incubation by Ames test; type: toxicity, subcellular; conditions: salmonella enterica subsp. enterica serovar typhimurium, s9, 48 h
# [26] = Mutagenicity in Salmonella typhimurium TA102 at 62.5 to 625 uM preincubated for 1 hr with S9 mix followed by addition of molten top agar and measured 48 hrs post dark incubation by Ames test; type: toxicity, subcellular; conditions: salmonella enterica subsp. enterica serovar typhimurium, s9, 48 h
# [27] = test system: HepG2; assay: Genotoxicity in human HepG2 cells at 1 to 20 uM after 2 to 72 hrs by comet assay; type: toxicity, cell-based; conditions: hepg2, 20 µM
# [28] = target: T1, Albumin (Homo sapiens, UniProt P02768); assay: Binding affinity to human serum albumin after 4 hrs by LC-MS analysis; type: ADME; conditions: read-out: PB (converted)
# T1 sequence (P02768 whole entry): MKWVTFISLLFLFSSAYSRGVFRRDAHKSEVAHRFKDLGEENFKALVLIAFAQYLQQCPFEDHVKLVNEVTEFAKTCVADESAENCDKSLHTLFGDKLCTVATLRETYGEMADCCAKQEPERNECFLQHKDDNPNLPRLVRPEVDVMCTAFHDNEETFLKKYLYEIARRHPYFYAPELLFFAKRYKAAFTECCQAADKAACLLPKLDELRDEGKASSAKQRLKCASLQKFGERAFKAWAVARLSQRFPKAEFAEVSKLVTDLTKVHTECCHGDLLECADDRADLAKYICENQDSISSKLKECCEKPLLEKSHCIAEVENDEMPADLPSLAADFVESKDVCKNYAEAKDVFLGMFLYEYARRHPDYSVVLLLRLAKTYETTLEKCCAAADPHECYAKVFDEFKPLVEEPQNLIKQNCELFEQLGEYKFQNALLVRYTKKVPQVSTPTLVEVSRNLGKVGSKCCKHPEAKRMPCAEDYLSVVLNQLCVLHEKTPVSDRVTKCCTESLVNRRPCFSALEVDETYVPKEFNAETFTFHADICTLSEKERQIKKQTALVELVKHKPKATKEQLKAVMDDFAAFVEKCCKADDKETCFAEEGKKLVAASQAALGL
# [29] = target: T1, Albumin; assay: Binding affinity to human serum albumin assessed as unbound fraction after 4 hrs by LC-MS analysis; type: ADME; conditions: isolated protein
# [30] = Lipophilicity, log D of the compound at pH 7.4 by HPLC analysis; type: physicochemical; conditions: buffer
# [31] = test system: Leishmania donovani; assay: Antileishmanial activity against wild type promastigote stage of Leishmania donovani MHOM/SD/62/1S-CL2D after 72 hrs by resazurin dye based fluorescence assay; type: functional, organism-based
# [32] = Substrate activity at NTR1 in promastigote stage of Leishmania donovani MHOM/SD/62/1S-CL2D assessed as inhibition of parasite growth after 72 hrs by resazurin dye based assay
# [33] = Substrate activity at NTR2 in promastigote stage of Leishmania donovani MHOM/SD/62/1S-CL2D assessed as inhibition of parasite growth after 72 hrs by resazurin dye based assay
# [34] = test system: Leishmania donovani; assay: Selectivity ratio of IC50 for wild type promastigote stage of Leishmania donovani MHOM/SD/62/1S-CL2D to IC50 for NTR1 in promastigote stage of Leishmania donovani MHOM/SD/62/1S-CL2D
# [35] = test system: Leishmania donovani; assay: Selectivity ratio of IC50 for NTR2 in promastigote stage of Leishmania donovani MHOM/SD/62/1S-CL2D to IC50 for NTR1 in promastigote stage of Leishmania donovani MHOM/SD/62/1S-CL2D
# [36] = Electrochemical behavior of the compound assessed as redox potential corrected toward normal hydrogen electrode by cyclic voltammetry
# [37] = Acute toxicity in Swiss mouse at 1 to 10 mg/kg, ip measured for 24 hrs; type: organism-based; conditions: in vivo
# [38] = Toxicity in Swiss mouse assessed as effect on brain at 1 mg/kg, ip administered for 5 days measured measured on day 7 to day 30 post last dose by HES staining based microscopic analysis; type: organism-based; conditions: in vivo, 120 h
# [39] = Toxicity in Swiss mouse assessed as effect on liver at 1 mg/kg, ip administered for 5 days measured measured on day 7 to day 30 post last dose by HES staining based microscopic analysis; type: organism-based; conditions: in vivo, 120 h
# [40] = Toxicity in Swiss mouse assessed as effect on kidney at 1 mg/kg, ip administered for 5 days measured measured on day 7 to day 30 post last dose by HES staining based microscopic analysis; type: organism-based; conditions: in vivo, 120 h
# [41] = Toxicity in Swiss mouse assessed as effect on spleen at 1 mg/kg, ip administered for 5 days measured measured on day 7 to day 30 post last dose by HES staining based microscopic analysis; type: organism-based; conditions: in vivo, 120 h
# [42] = Toxicity in Swiss mouse assessed as effect on heart at 1 mg/kg, ip administered for 5 days measured measured on day 7 to day 30 post last dose by HES staining based microscopic analysis; type: organism-based; conditions: in vivo, 120 h
# [43] = Toxicity in Swiss mouse assessed as effect on lungs at 1 mg/kg, ip administered for 5 days measured measured on day 7 to day 30 post last dose by HES staining based microscopic analysis; type: organism-based; conditions: in vivo, 120 h
# [44] = Toxicity in Swiss mouse assessed as effect on adipose tissue at 1 mg/kg, ip administered for 5 days measured measured on day 7 to day 30 post last dose by HES staining based microscopic analysis; type: organism-based; conditions: in vivo, 120 h
# [45] = Toxicity in Swiss mouse assessed as effect on muscles at 1 mg/kg, ip administered for 5 days measured measured on day 7 to day 30 post last dose by HES staining based microscopic analysis; type: organism-based; conditions: in vivo, 120 h
# [46] = Toxicity in Swiss mouse assessed as effect on liver by measuring inflammatory cell infiltration at 10 mg/kg, ip administered for 5 days measured measured on day 7 to day 30 post last dose by HES staining based microscopic analysis; type: organism-based; conditions: in vivo, 120 h
# [47] = Toxicity in Swiss mouse assessed as effect on skin by measuring hypodermic lymph node at 10 mg/kg, ip administered for 5 days measured measured on day 7 to day 30 post last dose by HES staining based microscopic analysis; type: organism-based; conditions: in vivo, 120 h
# [48] = Toxicity in Swiss mouse assessed as fibrosis at injection site 10 mg/kg, ip administered for 5 days measured measured on day 7 to day 30 post last dose by HES staining based microscopic analysis; type: organism-based; conditions: in vivo, 120 h
# [49] = Toxicity in Swiss mouse assessed as inflammation at injection site 10 mg/kg, ip administered for 5 days measured measured on day 7 to day 30 post last dose by HES staining based microscopic analysis; type: organism-based; conditions: in vivo, 120 h
structure (smiles),measurement,setting,value
O=[N+]([O-])c1c(CS(=O)(=O)c2ccccc2)nc2c(Sc3ccc(Cl)cc3)cc(Cl)cn12,IC50,[1],1000 nM
same,CC50 at 72 h,[2],> 100000 nM
same,solubility,[3],Soluble
same,selectivity ratio,[4],> 100
same,IC50,[5],1000 to 1300 nM
same,IC50,[6],1700 nM
same,IC50,[7],1300 nM
same,IC50,[8],2100 nM
same,Ratio IC50,[9],3
same,Ratio IC50,[10],2
same,IC50,[11],4600 to 5000 nM
same,IC50,[12],19000 nM
same,IC50,[13],1300 nM
same,IC50,[14],2200 nM
same,CC50 at 72 h,[15],> 62500 nM
same,solubility,[16],Insoluble
same,half-life,[17],3 min
same,Drug metabolism,[18],Metabolite_Detected
same,Activity,[19],Non-Toxic
same,Activity,[20],Non-Toxic
same,Activity,[21],Non-Toxic
same,Activity,[22],Non-Toxic
same,Activity,[23],Non-Toxic
same,Activity,[24],Non-Toxic
same,Activity,[25],Non-Toxic
same,Activity,[26],Non-Toxic
same,Activity,[27],Non-Toxic
same,fraction unbound at 4 h,[28],0.0005
same,logFu,[29],-3.28
same,logD,[30],4.26
same,IC50,[31],260 nM
same,IC50,[32],33 nM
same,IC50,[33],300 nM
same,Ratio IC50,[34],8
same,Ratio IC50,[35],8
same,Activity,[36],-0.63 V
same,Activity,[37],Non-Toxic
same,Activity,[38],Non-Toxic
same,Activity,[39],Non-Toxic
same,Activity,[40],Non-Toxic
same,Activity,[41],Non-Toxic
same,Activity,[42],Non-Toxic
same,Activity,[43],Non-Toxic
same,Activity,[44],Non-Toxic
same,Activity,[45],Non-Toxic
same,Activity,[46],Non-Toxic
same,Activity,[47],Non-Toxic
same,Activity,[48],Non-Toxic
same,Activity,[49],Non-Toxic
